Several values for one entry are separate records, joined by “and”; a condition that tells them apart may be missing. Equal values may be shown once. Activity calls are given as the source filed them. No rule for the calls is given here.
What was measured:
[1] = target: NS3h 1b (con1); assay: strain-dependent HCV NS3h unwinding inhibition – biochemical, real-time fluorescence, genotypes 2a and 1b, Set 2, selectivity assay for HCV NS3 helicase inhibitor project, late-stage follow-up (AID 504419); settings: Recombinant NS3 helicase
[2] = target: NS3h 2a (JFH1); assay: as above; settings: Recombinant NS3 helicase

SMILES | IC50 [1] | IC50 [2]
O=C1OC(c2ccc(F)cc2)=C/C1=C/c1ccc([N+](=O)[O-])o1 | > 100 µM (inactive) | > 100 µM (inactive)
NS(=O)(=O)c1ccc2nc(NC(=O)c3ccc4ncsc4c3)sc2c1 | inactive | > 10.9 µM (inactive)
Cc1ccc2nc(-c3ccc4nc(-c5ccc(NC(=O)c6ccc(N)cc6)cc5)sc4c3)sc2c1S(=O)(=O)O | 7.85 µM | 4.39 µM
COc1cc2oc(=O)cc(-c3ccc(-c4ccc(CO)cc4)cc3)c2c(OC)c1OC | > 100 µM (inactive) | > 100 µM (inactive)
Cc1ccc2nc(-c3ccc(NC(=S)Nc4ccccc4Br)cc3)sc2c1 | > 24 µM (inactive) | > 100 µM (inactive)
COc1cc2oc(=O)cc(-c3ccc(-c4ccc(NC(C)=O)cc4)cc3)c2c(OC)c1OC | > 100 µM (inactive) | > 100 µM (inactive)
Cc1ccc2nc(-c3ccc(NC(=O)c4ccc(F)cc4)cc3)sc2c1 | > 100 µM (inactive) | > 100 µM (inactive)
Cc1ccc2nc(-c3ccc4nc(-c5ccc(NC(=O)c6ccc7nc(-c8ccc(NC(=O)OCC9c%10ccccc%10-c%10ccccc%109)cc8)sc7c6)cc5)sc4c3)sc2c1S(=O)(=O)O | – | 2.09 µM and > 28 µM (inactive)
COc1cc(OC)c2c(-c3ccccc3)cc(=O)oc2c1[C@H](CCN1CCN(c2ccccc2)CC1)c1ccc(N(C)C)cc1 | > 33.2 µM (inactive) | > 80.3 µM (inactive)
Cc1ccc2nc(-c3ccc4nc(-c5ccc(NC(=O)c6ccc(Cl)cc6)cc5)sc4c3)sc2c1S(=O)(=O)O | 4.31 µM | 2.66 µM
Cc1cc(N2C(=O)C(O)=C(C(=O)c3ccc(C)o3)C2c2cccc(Cl)c2)no1 (stereo not given) | > 100 µM (inactive) | > 100 µM (inactive)
Cc1ccc2nc(-c3ccc4nc(-c5ccc(NC(=O)c6ccc(N(C)C)cc6)cc5)sc4c3)sc2c1S(=O)(=O)O | inactive | 6.15 µM
C/C(=N\NC(N)=S)c1cc(-c2ccccc2)c(-c2ccccc2)s1 | > 100 µM (inactive) | > 100 µM (inactive)
COc1ccc(S(=O)(=O)Nc2ccc(-c3nc4ccc(-c5nc6ccc(C)c(S(=O)(=O)O)c6s5)cc4s3)cc2)cc1 | inactive | inactive
Cc1ccc2nc(-c3ccc4nc(-c5ccc(NC(=O)c6ccc(C(C)(C)C)cc6)cc5)sc4c3)sc2c1S(=O)(=O)O | inactive | 4.96 µM
Cc1cc(N2C(=O)C(O)=C(C(=O)c3ccc(C)o3)C2c2cc(Cl)cc(Cl)c2)no1 (stereo not given) | > 100 µM (inactive) | > 100 µM (inactive)
COc1cc(OC)c2ccc(=O)oc2c1[C@H](CCN1CCN(c2ccccc2)CC1)c1ccc(N(C)C)cc1 | > 100 µM (inactive) | > 100 µM (inactive)
CCCCOc1ccccc1C(=O)NNC(=S)NC(=O)c1ccccc1[N+](=O)[O-] | > 100 µM (inactive) | > 100 µM (inactive)
Cc1ccc(C(=O)C2=C(O)C(=O)N(Cc3ccccc3)C2c2cc(Cl)cc(Cl)c2)o1 (stereo not given) | > 100 µM (inactive) | > 100 µM (inactive)
COc1ccc(C(=O)Nc2ccc(-c3nc4ccc(-c5nc6ccc(C)c(S(=O)(=O)O)c6s5)cc4s3)cc2)cc1 | 8.41 µM | 5.7 µM
Cc1ccc2nc(-c3ccc4nc(NC(=O)c5ccc6ncoc6c5)sc4c3)sc2c1 | inactive | inactive

SMILES | IC50 [1] | IC50 [2]
COc1ccc([C@H]2C[C@@H](c3ccccc3)Oc3cc(OC)c(OC)c(OC)c32)cc1 | > 100 µM (inactive) | > 100 µM (inactive)
CN(C)c1ccc(O)c2c1C[C@H]1C[C@H]3[C@H](N(C)C)C(=O)C(C(N)=O)=C(O)[C@@]3(O)C(=O)C1=C2O | inactive | > 100 µM (inactive)
COc1c(N2CCN(C(=S)NCc3ccccc3)C(C)C2)c(F)cc2c(=O)c(C(=O)O)cn(C3CC3)c12 (stereo not given) | > 100 µM (inactive) | > 100 µM (inactive)
CCc1cc2c(=O)n(Cc3ccco3)c(SCc3c(C)noc3C)nc2s1 | > 100 µM (inactive) | > 100 µM (inactive)
Nc1c(C(=O)Nc2ccccc2F)sc2nc(-c3ccco3)ccc12 | > 100 µM (inactive) | > 100 µM (inactive)
NC(=S)N/N=C/c1ccc(C23CC4CC(CC(C4)C2)C3)cc1 | > 100 µM (inactive) | > 100 µM (inactive)
COC(=O)c1ccc(C(=O)Nc2ccc(-c3nc4ccc(-c5nc6ccc(C)c(S(=O)(=O)O)c6s5)cc4s3)cc2)cc1 | 6.85 µM | 4.98 µM
NS(=O)(=O)c1ccc2nc(NC(=O)c3ccc4ncoc4c3)sc2c1 | > 26.5 µM (inactive) | inactive
C=C1c2cccc(O)c2C(O)=C2C(=O)[C@]3(O)C(O)=C(C(N)=O)C(=O)[C@@H](N(C)C)[C@@H]3[C@@H](O)[C@H]12 | inactive | > 100 µM (inactive)
Cc1ccc(NC(=O)Nc2ccc(-c3nc4ccc(-c5nc6ccc(C)c(S(=O)(=O)O)c6s5)cc4s3)cc2)cc1 | 5.93 µM | 3.21 µM
O=C(c1ccc2nc(-c3ccco3)c(-c3ccco3)nc2c1)N1CCN(c2ccccc2)CC1 | > 100 µM (inactive) | > 100 µM (inactive)
CCCCCOc1ccc(C2C(C(=O)c3ccc(C)o3)=C(OC)C(=O)N2c2cc(C)on2)cc1 (stereo not given) | > 100 µM (inactive) | > 100 µM (inactive)
Cc1ccc2nc(-c3ccc4nc(-c5ccc(NC(=O)c6ccc(C(F)(F)F)cc6)cc5)sc4c3)sc2c1S(=O)(=O)O | 1.76 µM | 2.51 µM
CCN(CC)S(=O)(=O)c1cccc(C(=O)N/N=C/c2ccc(O)c(O)c2O)c1 | > 100 µM (inactive) | > 100 µM (inactive)
CCOc1ccc(C2C(C(=O)c3ccc(C)o3)=C(O)C(=O)N2Cc2ccco2)cc1 (stereo not given) | > 100 µM (inactive) | > 100 µM (inactive)
O=C(Nc1nc(-c2ccco2)c(-c2ccco2)s1)C1CCC1 | > 16.4 µM (inactive) | > 100 µM (inactive)
Cc1ccc2nc(-c3ccc4nc(-c5ccc6nc(-c7ccc8nc(-c9ccc(N)cc9)sc8c7)sc6c5)sc4c3)sc2c1S(=O)(=O)O | 2.13 µM | 1.98 µM
Cc1ccc2nc(-c3ccc4nc(-c5ccc(NC(=O)c6ccc(F)cc6)cc5)sc4c3)sc2c1S(=O)(=O)O | 5.38 µM | 2.75 µM
Cc1ccc2nc(-c3ccc4nc(-c5ccc(NC(=O)c6ccccc6)cc5)sc4c3)sc2c1S(=O)(=O)O | inactive | 4.07 µM
Cc1ccc(NC(=O)C2=C(c3ccccc3)S(=O)(=O)CCS2(=O)=O)cc1 | > 100 µM (inactive) | > 100 µM (inactive)
Cc1ccc(C(=O)C2=C(O)C(=O)N(Cc3ccco3)C2c2cc(Cl)cc(Cl)c2)o1 (stereo not given) | > 100 µM (inactive) | > 100 µM (inactive)

SMILES | IC50 [1] | IC50 [2]
O=C(NC(=S)Nc1ccc(-c2ccc(CO)o2)cc1)c1cccs1 | > 100 µM (inactive) | > 100 µM (inactive)
COc1cc(Br)cc(C2C(C(=O)c3ccc(C)o3)=C(O)C(=O)N2Cc2ccccc2)c1OC (stereo not given) | > 100 µM (inactive) | > 100 µM (inactive)
CC(=O)c1ccc(-c2cccc(-c3cc(=O)oc4ccc(C(C)(C)C)cc34)c2)cc1 | > 100 µM (inactive) | > 100 µM (inactive)
O=c1c(O)cccc2cc(O)c(O)c(O)c12 | > 100 µM (inactive) | > 100 µM (inactive)
Cc1ccc2nc(-c3ccc4nc(-c5ccc(NC(=O)c6ccc7nc(-c8ccc(N)cc8)sc7c6)cc5)sc4c3)sc2c1S(=O)(=O)O | 7.57 µM | 2.52 µM
Cc1ccc(/C=C/C(=O)Nc2ccc([N+](=O)[O-])c(NC(=O)/C=C/c3ccc(C)o3)c2)o1 | > 38.1 µM (inactive) | > 100 µM (inactive)
N#C/C(=C\c1ccc(O)c(O)c1)S(=O)(=O)c1ccccc1 | > 100 µM (inactive) | > 100 µM (inactive)
Cc1ccc2nc(-c3ccc4nc(-c5ccc(NC(=O)c6ccc(NC(=O)OCC7c8ccccc8-c8ccccc87)cc6)cc5)sc4c3)sc2c1S(=O)(=O)O | 6.56 µM | 6.04 µM
Cc1ccc(C(=O)Nc2ccc(-c3nc4ccc(-c5nc6ccc(C)c(S(=O)(=O)O)c6s5)cc4s3)cc2)cc1 | 3.69 µM | 3.35 µM
COc1cc(Br)cc(C2C(C(=O)c3ccc(C)o3)=C(O)C(=O)N2c2cc(C)on2)c1OC (stereo not given) | > 100 µM (inactive) | > 100 µM (inactive)
O=c1c2c(-c3ccco3)csc2nc(SCc2cn3ncccc3n2)n1-c1ccccc1 | > 100 µM (inactive) | > 100 µM (inactive)
CCOc1ccc(C2C(C(=O)c3ccc(C)o3)=C(O)C(=O)N2c2cc(C)on2)cc1 (stereo not given) | > 100 µM (inactive) | > 100 µM (inactive)
COc1cc(Br)cc(C2C(C(=O)c3ccc(C)o3)=C(O)C(=O)N2Cc2ccco2)c1OC (stereo not given) | > 100 µM (inactive) | > 100 µM (inactive)
COc1ccc(N=Nc2ccc(O)c3ncccc23)c(S(=O)(=O)N(C)C)c1 | > 100 µM (inactive) | > 100 µM (inactive)
CN(C)S(=O)(=O)c1cccc(NC(=S)N/N=C/c2cc(Br)ccc2O)c1 | > 100 µM (inactive) | > 100 µM (inactive)
Cc1ccc2nc(-c3ccc(NC(=O)c4ccc(F)cc4)cc3)sc2c1S(=O)(=O)O | > 100 µM (inactive) | > 100 µM (inactive)
Cc1ccc2nc(-c3ccc4nc(-c5ccc(N)cc5)sc4c3)sc2c1S(=O)(=O)O | inactive | inactive
Cc1ccc2nc(-c3ccc(NC(=O)c4ccc5ncoc5c4)cc3)sc2c1 | inactive | inactive
CC(C)C(C)(C#N)NC(=O)CSc1nc2scc(-c3ccco3)c2c(=O)n1-c1ccccc1 (stereo not given) | > 100 µM (inactive) | > 100 µM (inactive)
CC1CCCCC1NC(=O)COC(=O)c1c2c(nc3ccccc13)/C(=C/c1ccco1)CC2 (stereo not given) | inactive | > 100 µM (inactive)
CCCCOc1ccc(C2C(C(=O)c3ccc(C)o3)=C(O)C(=O)N2c2cc(C)on2)cc1 (stereo not given) | > 100 µM (inactive) | > 100 µM (inactive)

— PubChem BioAssay AID504419 (The Scripps Research Institute Molecular Screening Center, 2011)
